In the OPERA property sets (Mansouri et al. 2018):

| Compound | log10 Koc (L/kg) | melting point [°C] | boiling point [°C] | log10 vapour pressure (mmHg) | ready biodegradability | log10 Koa | logP | log10 biodegradation half-life (days) |
| --- | --- | --- | --- | --- | --- | --- | --- | --- |
| c1ccc2c(c1)ccc1[nH]c3ccc4ccccc4c3c12 | 6.03 | 158 | – | – | – | – | – | – |
| CC(C)=CCC(C)C | – | – | 112 | 1.4 | – | – | – | – |
| CCC(C)OC(C)CC (centres undefined) | – | -100 | – | 1.21 | – | – | – | – |
| CC1(C)OC[C@@H]2O[C@@]3(C(=O)O)OC(C)(C)O[C@H]3[C@@H]2O1 | – | 74 | – | – | – | – | – | – |
| C1CN2CCC1CC2 | – | 158 | – | 0.282 | – | – | – | – |
| O=C(O)C1=CC(=C(c2ccc(O)c(C(=O)O)c2)c2ccc(O)c(C(=O)O)c2)C=CC1=O | – | 300 | – | – | – | – | – | – |
| C1CCCCCCC1 | – | 14.8 | 149 | 0.741 | – | – | – | – |
| CCOC(O)C(Cl)(Cl)Cl (centres undefined) | – | 56.5 | 116 | – | – | – | – | – |
| N#CCCN(CCC#N)c1ccc(N=Nc2c(Cl)cc([N+](=O)[O-])cc2Cl)cc1 | – | – | – | – | not readily biodegradable | – | – | – |
| CC1CC1(C)C (centres undefined) | – | -138 | 54 | – | – | – | – | – |
| O=C1OC(=O)c2c(Br)c(Br)c(Br)c(Br)c21 | – | 275 | – | – | – | – | – | – |
| Clc1ccc(Cn2c(CN3CCCC3)nc3ccccc32)cc1 | – | 167 | – | – | – | – | – | – |
| C=C(C)C(=O)OCC(CC)(COC(=O)C(=C)C)COC(=O)C(=C)C | – | – | – | – | readily biodegradable | – | – | – |
| CCC(=O)CC(=O)CC | – | – | – | – | readily biodegradable | – | – | – |
| O=C(O)CNC(=O)c1ccccc1 | – | 192 | – | – | readily biodegradable | – | – | – |
| CCCCCC#N | – | -80.3 | 164 | 0.455 | – | 4.08 | – | – |
| COC(=O)c1cc(Cl)ccc1O | – | 50 | – | – | – | – | – | – |
| Clc1cc(Cl)nc(-c2ccccc2)n1 | – | 96.9 | – | -4.05 | – | – | – | – |
| Brc1ccc(Oc2c(Br)cc(Br)cc2Br)c(Br)c1 | – | – | – | – | – | – | 7.24 | – |
| Clc1nc2ccccc2o1 | – | – | 202 | – | – | – | – | – |
| CCOP(=S)(OCC)Oc1ccc(=O)n(-c2ccccc2)n1 | – | 55 | – | -7.96 | – | – | – | – |
| COc1cc(NS(=O)(=O)c2ccc(N)cc2)nc(C)n1 | – | 146 | – | – | – | – | – | – |

| Compound | log10 Koc (L/kg) | melting point [°C] | boiling point [°C] | log10 vapour pressure (mmHg) | ready biodegradability | log10 Koa | logP | log10 biodegradation half-life (days) |
| --- | --- | --- | --- | --- | --- | --- | --- | --- |
| CCCCCCCCCCCCCCCCCC(=O)OC | – | 39.1 | 370 | -4.87 | – | – | – | – |
| CCC1(O)CCCCC1 | – | 34.5 | 166 | – | – | – | – | – |
| O=c1c2ccccc2oc2ccccc12 | – | 174 | 351 | – | – | – | – | – |
| N#CCCN1CCCCC1 | – | -6.8 | – | – | – | – | – | – |
| Fc1ccc2ccccc2c1 | – | 61 | 212 | – | – | – | – | – |
| O=[N+]([O-])c1cncn1CCN1CCOCC1 | – | 110 | – | – | – | – | – | – |
| c1ccc2sccc2c1 | 3.48 | 32 | 221 | -0.624 | – | – | – | 1.4 |
| CNc1ccc(NC)c2c1C(=O)c1ccccc1C2=O | – | 220 | – | -10.7 | – | – | – | – |
| CCCCCCCCCCCCCCCCN | – | 46.8 | 322 | -3.88 | – | – | – | – |
| CCCCS(=O)CCCC | – | 32.6 | – | – | – | – | – | – |
| O=C1CCCC(=O)N1 | – | 156 | – | – | – | – | – | – |
| CCNC(=O)C(C)OC(=O)Nc1ccccc1 (centres undefined) | – | 119 | – | – | – | – | – | – |
| Cc1ccc(C[N+](=O)[O-])cc1 | – | 11.5 | – | – | – | – | – | – |
| Nc1ccccc1F | – | -34.6 | 175 | – | – | – | – | – |
| CC=C(C)CCl | – | – | 110 | – | – | – | – | – |
| ClC1=C(Cl)C(Cl)(C2(Cl)C(Cl)=C(Cl)C(Cl)=C2Cl)C(Cl)=C1Cl | 4.52 | 122 | – | -5.66 | – | – | – | – |
| CC[C@H](C)C(=O)O[C@H]1CCC=C2C=C[C@H](C)[C@H](CC[C@@H]3C[C@@H](O)CC(=O)O3)[C@H]21 | – | 152 | – | – | – | – | – | – |
| Clc1ccc(Cn2cncn2)cc1Cl | – | 46.5 | – | – | – | – | – | – |
| Cc1ccccc1CCl | – | – | 198 | – | – | – | – | – |
| O=c1ccoc2ccccc12 | – | 59 | – | – | – | – | – | – |
| C=C(F)F | – | -144 | -85.7 | 4.48 | – | – | – | – |
| CC(=O)OC[C@H]([C@H](OC(C)=O)c1ccccc1)[N+](=O)[O-] | – | 70 | – | – | – | – | – | – |

| Compound | log10 Koc (L/kg) | melting point [°C] | boiling point [°C] | log10 vapour pressure (mmHg) | ready biodegradability | log10 Koa | logP | log10 biodegradation half-life (days) |
| --- | --- | --- | --- | --- | --- | --- | --- | --- |
| CCOc1cc(OP(=S)(OC)OC)nc(CC)n1 | – | -3.35 | – | -4.1 | – | – | – | – |
| CNC(=C[N+](=O)[O-])NCCSCc1ccc(CN(C)C)o1 | – | 69.5 | – | – | – | – | – | – |
| CCN(C(=O)Oc1cccc(NC(=O)OC(C)C)c1)c1ccccc1 | – | 110 | – | – | – | – | – | – |
| CC(C)CCC[C@@H](C)[C@H]1CC[C@H]2C3=CC=C4C[C@@H](O)CC[C@]4(C)[C@H]3CC[C@]12C | – | 150 | – | – | – | – | – | – |
| CCCCCC(O)(CC)CC | – | – | 199 | – | – | – | – | – |
| Cc1c(C2(c3cc(Br)c(O)c(Br)c3C)OS(=O)(=O)c3ccccc32)cc(Br)c(O)c1Br | – | 218 | – | – | – | – | – | – |
| N[C@@H](CSCC(=O)O)C(=O)O | – | 206 | – | – | – | – | – | – |
| C=C[N+](=O)[O-] | – | -55.5 | 98.5 | – | – | – | – | – |
| OC(CCN1CCCC1)(c1ccccc1)C1CCCCC1 (centres undefined) | – | 86 | – | – | – | – | – | – |
| O=C(O)C1CCCC1 | – | -7 | 212 | – | – | – | – | – |
| CC(=O)OCCBr | – | -13.8 | 162 | – | – | – | – | – |
| Nc1cc([N+](=O)[O-])ccc1O | – | 144 | – | – | – | – | – | – |
| CCCOC(C)C | – | – | 83 | – | – | – | – | – |
| CCOC(C)(OCC)OCC | – | – | 145 | – | – | – | – | – |
| CCCOCC(C)O (centres undefined) | – | -80 | 150 | 0.23 | – | – | – | – |
| CC(=O)OC(OC(C)=O)c1ccco1 | – | 53.3 | 220 | – | – | – | – | – |
| CCCCN1CCOCC1 | – | -57.1 | 214 | – | – | – | – | – |
| CCCCCCCCCCCCCCCCCC | – | 28.2 | 316 | -3.47 | readily biodegradable | – | – | 1.32 |
| Oc1ccncc1 | – | 150 | – | – | readily biodegradable | – | – | – |
| CCOC(=O)C(=O)Nc1ccccc1 | – | 65.5 | 280 | – | – | – | – | – |
